The assay addresses T1, hVN1R1 (Homo sapiens, UniProt Q9GZP7).
T1 construct: gene VN1R1
T1 sequence (Q9GZP7 1-353): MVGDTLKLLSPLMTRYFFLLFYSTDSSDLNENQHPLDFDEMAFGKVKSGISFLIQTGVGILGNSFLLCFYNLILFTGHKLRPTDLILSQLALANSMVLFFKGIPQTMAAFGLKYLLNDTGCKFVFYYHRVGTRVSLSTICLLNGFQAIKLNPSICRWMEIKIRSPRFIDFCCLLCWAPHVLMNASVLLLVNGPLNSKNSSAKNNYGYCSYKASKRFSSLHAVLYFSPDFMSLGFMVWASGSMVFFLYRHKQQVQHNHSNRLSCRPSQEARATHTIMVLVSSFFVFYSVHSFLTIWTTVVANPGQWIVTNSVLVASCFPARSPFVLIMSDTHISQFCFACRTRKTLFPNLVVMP
Nature of the assay: label-free microscale thermophoresis (tryptophan fluorescence), purified receptor, heat-denatured control. It is filed as binding.

The results in this text go back to publication PMC3201940, “A Robust and Rapid Method of Producing Soluble, Stable, and Functional G-Protein Coupled Receptors” (PLoS ONE, 2011).

In turn, `C=C(C)C1CC=C(C)C(O)C1` (mixture of isomers) [carveol] yielded an EC50 of 3.5 ± 0.7 µM.

Broadly, the EC50 is the concentration giving half of the maximal effect.
